By inhibition is commonly meant the change of the read-out against control, counted positive when it falls. As a reminder, the IC50 is the concentration that inhibits the measured activity by half.

The results in this text go back to paper PMC6017873 (Molecules : A Journal of Synthetic Chemistry and Natural …, 2018).

The target in series [1] is T1, HDAC11 (Homo sapiens, UniProt Q96DB2).
T1 sequence (Q96DB2 1-347): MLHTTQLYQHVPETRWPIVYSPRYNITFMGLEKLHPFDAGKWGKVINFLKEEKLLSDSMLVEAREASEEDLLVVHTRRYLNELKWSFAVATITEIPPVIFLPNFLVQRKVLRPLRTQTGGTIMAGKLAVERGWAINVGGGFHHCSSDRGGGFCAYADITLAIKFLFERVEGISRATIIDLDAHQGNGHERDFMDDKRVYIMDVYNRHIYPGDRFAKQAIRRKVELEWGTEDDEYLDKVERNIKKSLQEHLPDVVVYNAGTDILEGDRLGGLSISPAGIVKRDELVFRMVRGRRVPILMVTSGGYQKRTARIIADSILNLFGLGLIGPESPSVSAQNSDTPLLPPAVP
In words: Selective in vitro HDAC activity assay, recombinant HDAC11. The class given is biochemical. How it is done:
(§1) (a) In vitro total HDAC activity was evaluated using K-562 nuclear extracts in the presence of various concentrations of eurochevalierine. (b) Selective in vitro HDAC activity assays were carried out using selected recombinant HDAC proteins in the presence of various concentrations of eurochevalierine. Results are reported as percent of DMSO vehicle control and expressed as the mean ± SD of three independent experiments. * and ** indicate p < 0.05 and p < 0.01 versus untreated cells, respectively.

In series [2] the target is T2, SIRT2 (Homo sapiens, UniProt Q8IXJ6).
T2 sequence (Q8IXJ6 1-389): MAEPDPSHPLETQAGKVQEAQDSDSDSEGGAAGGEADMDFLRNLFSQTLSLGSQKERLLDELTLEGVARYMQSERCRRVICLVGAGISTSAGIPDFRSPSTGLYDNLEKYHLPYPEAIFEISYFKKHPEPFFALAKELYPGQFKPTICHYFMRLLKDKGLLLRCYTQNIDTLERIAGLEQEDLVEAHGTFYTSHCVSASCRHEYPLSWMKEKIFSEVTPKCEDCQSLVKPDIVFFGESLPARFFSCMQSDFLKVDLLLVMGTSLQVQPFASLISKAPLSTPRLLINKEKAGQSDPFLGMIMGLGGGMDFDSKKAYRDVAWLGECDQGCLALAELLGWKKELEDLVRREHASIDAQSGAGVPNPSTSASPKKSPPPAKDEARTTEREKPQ
In words: In vitro SIRT2 activity assay. The conditions noted are these: IC50 SIRT2, mean ± SD of three independent experiments.

In series [3] the target is T3, SIRT3 (Homo sapiens, UniProt Q9NTG7).
T3 sequence (Q9NTG7 1-399): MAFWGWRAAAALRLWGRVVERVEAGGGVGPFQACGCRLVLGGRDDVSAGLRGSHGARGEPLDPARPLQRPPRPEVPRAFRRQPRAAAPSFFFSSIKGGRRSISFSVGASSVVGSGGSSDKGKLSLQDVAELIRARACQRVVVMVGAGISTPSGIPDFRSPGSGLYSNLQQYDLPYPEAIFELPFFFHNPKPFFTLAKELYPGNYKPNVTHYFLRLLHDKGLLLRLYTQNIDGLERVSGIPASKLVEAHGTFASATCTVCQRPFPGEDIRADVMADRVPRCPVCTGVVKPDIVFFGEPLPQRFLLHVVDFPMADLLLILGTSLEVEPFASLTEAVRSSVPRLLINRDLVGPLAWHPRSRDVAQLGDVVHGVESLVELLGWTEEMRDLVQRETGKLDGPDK
In words: In vitro SIRT3 activity assay. The series is classed as biochemical.

The test system of series [4] is total HDAC activity (K-562 nuclear extracts). In words: In vitro total HDAC activity using K-562 nuclear extracts. The conditions noted are these: 100 µM. The class given is biochemical, human. The protocol: as §1
In series [5] the target is T4, SIRT1 (Homo sapiens, UniProt Q96EB6).
T4 sequence (Q96EB6 1-747): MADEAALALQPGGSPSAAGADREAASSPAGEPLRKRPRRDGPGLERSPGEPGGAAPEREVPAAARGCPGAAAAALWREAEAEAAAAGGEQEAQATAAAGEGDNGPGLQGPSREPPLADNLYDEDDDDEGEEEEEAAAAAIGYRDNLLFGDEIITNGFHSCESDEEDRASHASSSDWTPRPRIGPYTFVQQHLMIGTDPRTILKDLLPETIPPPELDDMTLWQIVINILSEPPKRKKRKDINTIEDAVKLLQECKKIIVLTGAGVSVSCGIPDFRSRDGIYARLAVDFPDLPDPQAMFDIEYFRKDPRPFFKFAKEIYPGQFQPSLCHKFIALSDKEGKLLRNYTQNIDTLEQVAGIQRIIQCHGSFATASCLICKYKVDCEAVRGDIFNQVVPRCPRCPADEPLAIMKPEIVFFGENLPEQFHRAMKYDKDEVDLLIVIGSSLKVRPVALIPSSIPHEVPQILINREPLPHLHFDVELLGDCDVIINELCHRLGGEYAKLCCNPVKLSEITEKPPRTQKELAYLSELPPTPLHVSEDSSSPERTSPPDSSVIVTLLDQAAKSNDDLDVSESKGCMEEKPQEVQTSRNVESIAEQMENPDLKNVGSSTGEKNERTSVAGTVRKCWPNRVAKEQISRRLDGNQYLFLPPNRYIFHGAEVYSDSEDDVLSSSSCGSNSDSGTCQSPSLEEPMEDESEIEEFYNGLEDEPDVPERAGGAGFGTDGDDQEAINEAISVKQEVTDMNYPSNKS
In words: In vitro SIRT1 activity assay. The conditions noted are these: IC50 SIRT1, mean ± SD of three independent experiments.

Series [6] relates to PBMCs from healthy donors. In words: Viability of PBMCs from healthy donors (Trypan Blue exclusion). The conditions noted are these: up to 48 h, up to 100 µM. The class given is cell-based. How it is done: The viability of PBMCs from healthy donors was assessed after 24 and 48 h of treatment at the indicated concentration of eurochevalierine. Results correspond to mean ± SD of three independent experiments.
PBMCs were isolated as previously reported.
PBMCs and CD34^+ cells were processed through a semi-automated image-based cell analyzer (Cedex XS Innovatis, Roche, Luxembourg), which provides information about cell concentration and viability based on the Trypan Blue exclusion method.

Several values for one entry are separate records, joined by “and”; a condition that tells them apart may be missing. Equal values may be shown once.

`C=C(C)[C@@H]1CC[C@@H](C)[C@@]2(O)[C@@H]1C=C(C)[C@@H](OC(C)=O)[C@@H]2OC(=O)[C@H](CC(=O)c1ccccc1NC)NC=O` [Eurochevalierine, eurochevalierine]: the inhibition at 100 µM in series [1] is approximately 51%. Besides, the 50% inhibitory concentration (IC50) is 10 µM and ~10 µM and 10.2 µM in series [2]; more than 100 µM in series [3] (mean ± SD of three independent experiments); ~10 µM and 9.8 µM in series [5]. For the same compound, the “remaining SIRT3 enzymatic activity compared to the control set to 100%” value in series [3] (at 100 µM) turned out to be 59%. For the same compound, the “inhibition of total HDAC activity” value in series [4] is listed as “about 33%”. Also, the “acute toxicity on viability of PBMCs” value in series [6] is on record as “does not trigger any acute toxicity”.
